We go through three compounds from patent publication US7973047B2, “Beta-Secretase modulators and methods of use” (Amgen Inc., priority 2010, dated 2011).

Read-outs that look alike come from different tables or passages of the source.

For one test, the target named is BACE (Homo sapiens, UniProt P56817). The test is described as follows: In vitro enzymatic BACE FRET (fluorescence resonance energy transfer) assay. The conditions noted are these: BACE enzyme 0.2 nM, FRET substrate 50 nM, acetate buffer pH 4.2. The format is biochemical. The method, then: In Vitro Enzymatic BACE FRET (Fluorescence Resonance Energy Transfer) Assay
Chain of BACE (P56817 46-501, species assumed): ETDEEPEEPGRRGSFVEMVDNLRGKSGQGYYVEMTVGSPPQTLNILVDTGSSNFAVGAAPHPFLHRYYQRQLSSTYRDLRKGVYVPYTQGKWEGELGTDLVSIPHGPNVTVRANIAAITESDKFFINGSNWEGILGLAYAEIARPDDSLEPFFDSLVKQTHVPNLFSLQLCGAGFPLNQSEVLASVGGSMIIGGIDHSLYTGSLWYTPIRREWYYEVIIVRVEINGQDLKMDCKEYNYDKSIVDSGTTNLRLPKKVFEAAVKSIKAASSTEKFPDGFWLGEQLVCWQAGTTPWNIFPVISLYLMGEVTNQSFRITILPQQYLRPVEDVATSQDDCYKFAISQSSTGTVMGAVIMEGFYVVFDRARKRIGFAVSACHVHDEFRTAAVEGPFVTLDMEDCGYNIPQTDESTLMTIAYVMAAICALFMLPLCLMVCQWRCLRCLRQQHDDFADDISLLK
Assay buffer is 0.05 M acetate, pH 4.2, 10% DMSO final, 100 uM genapol (which is a nonionic detergent, below it's Critical Micelle Concentration). Enzyme (0.2 nM) is pre-incubated for one hour with inhibitors added in 1 uL of DMSO. Then the assay is started by the addition of FRET substrate (50 nM) and incubated for one hour. The FRET assay is terminated with by addition of Tris buffer, which raises the pH to neutrality, and the fluorescence is determined. The FRET substrate is a peptide with commercially available fluorophore and quencher, on opposite sides of the BACE cleavage site. Proteolytic cleavage of the FRET substrate releases quenching of fluorescence (excitation 488 nm and emission […]).

Test [1] concerns Aβ40 in conditioned medium of cells stably expressing Amyloid Precursor Protein (APP). The test is described as follows: BACE cell-based assay: Aβ40 in conditioned medium by sandwich ELISA. Summed up: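 Aβ40 in conditioned medium was read by time-resolved fluorescence sandwich ELISA (capture pAb40, detection biotinylated 6E10, 4° C incubations). Compounds were applied for 24 h to cells stably expressing APP, at 10 doses from 100 or 10 μM top, 0.1% DMSO. IC50 derived from percent of control.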
A general note: An ELISA detects its analyte on a solid surface through an enzyme-linked reagent.

For `CC(=O)N[C@@H](Cc1ccccc1)[C@H](O)CN[C@H]1CC2(CCC2)Oc2ncc(CC(F)(F)F)cc21` [Example 512, N-((1S,2R)-2-hydroxy-1-(phenylmethyl)-3-(((4′S)-6′-(2,2,2-trifluoroethyl)-3′,4′-dihydrospiro[cyclobutane-1,2′-pyrano[2,3-b]pyridin]-4′-yl)amino)propyl)acetamide], the IC50 on BACE was not above 5000 nM; in test [1] (cells stably expressing APP, 24 h incubation with compound, Aβ40 in supernatant by sandwich ELISA, read-out: IC50 values in the cell-based assay (inhibition or reduction of Aβ40)), not above 5000 nM.
For `CC(=O)N[C@@H](Cc1cccc(F)c1)[C@H](O)CN[C@H]1CC2(CCC2)Oc2c1cc(CC(C)(C)C)nc2OC(C)C` [Example 610, N-((1S,2R)-3-(((4′S)-6′-(2,2-dimethylpropyl)-8′-((1-methylethyl)oxy)-3′,4′-dihydrospiro[cyclobutane-1,2′-pyrano[2,3-c]pyridin]-4′-yl)amino)-1-((3-fluorophenyl)methyl)-2-hydroxypropyl)acetamide], the IC50 against BACE is not above 5000 nM; in test [1] (cell based assay data of Table 4, unit inferred, read-out: Cell Assay), 17.2 nM.
For the compound `C=CC[C@H](NC(C)=O)[C@H](O)CN[C@H]1CC2(CCC2)Oc2ncc(CC(C)(C)C)cc21` [Example 736, N-((1S)-1-((1R)-2-(((4′S)-6′-(2,2-dimethylpropyl)-3′,4′-dihydrospiro[cyclobutane-1,2′-pyrano[2,3-b]pyridin]-4′-yl)amino)-1-hydroxyethyl)-3-buten-1-yl)acetamide], the IC50 against BACE is not above 5000 nM; in test [1] (cell based assay data, Table 4, unit inferred, read-out: Cell Assay), 34 nM.
